Data reported in patent publication US7947468B2, “Methods” (Medical Research Council, priority 2007, dated 2011).

Assays:
Human Platelets = conditions: non-specific serine/threonine kinase inhibitor; cited from earlier work
LRRK2 = experiment: Concentration dependent phosphorylation of Nictide / LongLRRKtide by LRRK2; format: biochemical
From the text: A longer LRRKtide, with the +7 to +12 residues of the Thr 558 site was compared to the LRRKtide by phosphorylation with LRRK2. […] The LRRK2 affinity for the longLRRKtide is ten fold more than that that of LRRKtide.
A derived consensus sequences is shown below the positions. FIG. 24B depicts an alignment of the peptide substrate sequences previously used for LRRK2, LRRKtide and LongLRRKtide, along with a new peptide in which the preferred LRRK2 residues are substituted, henceforth referred to as Nictide. […] Calculated Km values are 6 μM for Nictide.

## CN[C@@H]1C[C@H]2O[C@@](C)([C@@H]1OC)n1c3ccccc3c3c4c(c5c6ccccc6n2c5c31)C(=O)NC4 [staurosporine]
Human Platelets
  effect on platelet behaviour: form extremely long filopodia and not to spread on glass

## RLGRDKYKTLRQIRQGNTKQR (listed as Homo sapiens) [longLRRKtide]
LRRK2; compared to LRRKtide
  LRRK2 affinity relative to LRRKtide: ten fold

## RLGWWRFYTLRRARQGNTKQR [Nictide]
LRRK2; 5 min reaction times, read-out: Calculated Km
  Km: 6 µM
